Legend:
late watergrass = test: Test Example 1: herbicidal activity, application before weed generation under submerged conditions (Table 16, symbol A); type: in vivo, late watergrass (Echinochloa oryzicola); conditions: amount of applied herbicide 320 g/ha
In short: (§1)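 Submerged Wagner pots (alluvial soil, 4 cm water) sown with weed seeds and planted with 2.5-leaf rice seedlings; emulsifiable concentrate diluted in water applied to water surface on sowing day. Held in greenhouse at 25-30 °C; injury scored 0-5 by herbicidal rate after three weeks.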

Japanese bulrush = test: Test Example 1: herbicidal activity, application before weed generation under submerged conditions (Table 16, symbol B); type: in vivo, Japanese bulrush (Schoenoplectus juncoides); conditions: amount of applied herbicide 320 g/ha
In short: as §1

oval-leafed pondweed = test: Test Example 1: herbicidal activity, application before weed generation under submerged conditions (Table 16, symbol C); type: in vivo, oval-leafed pondweed (Monochoria vaginalis); conditions: amount of applied herbicide 320 g/ha
In short: as §1

barnyard grass [1] = test: Test Example 3: herbicidal effect by foliage application, Wagner pot (Table 18, symbol H); type: in vivo, barnyard grass (Echinochloa crus-galli); conditions: 320 g/ha
In short: (§2)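 Plants were sown in alluvial soil held under 0.1–0.5 cm standing water and grown 14 days in a greenhouse at 25–30 °C. An emulsifiable formulation, water-diluted to the set dose, was then sprayed onto the foliage, and effects were scored three weeks later using previously defined criteria.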

Chinese sprangletop = test: Test Example 3: herbicidal effect by foliage application, Wagner pot (Table 18, symbol D); type: in vivo, chinese sprangletop (Leptochloa chinensis); conditions: 320 g/ha
In short: as §2

rice flat sedge = test: Test Example 3: herbicidal effect by foliage application, Wagner pot (Table 18, symbol E); type: in vivo, rice flat sedge (Cyperus iria); conditions: 320 g/ha
In short: as §2

southern crabgrass [2] = test: Test Example 4: herbicidal effect by soil treatment (Table 19, symbol F); type: in vivo, southern crabgrass (Digitaria ciliaris); conditions: amount of applied herbicide 320 g/ha
In short: (§3)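 Scoring uses the grading scale of an earlier test, three weeks post-application. Treatment consists of spraying a diluted emulsion formulation across the surface of sterilized diluvial soil in which seeds are buried near 1.5 cm deep; boxes are kept in a greenhouse between 25° C. and 30° C.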

green foxtail [3] = test: Test Example 4: herbicidal effect by soil treatment (Table 19, symbol G); type: in vivo, green foxtail (Setaria viridis); conditions: amount of applied herbicide 320 g/ha
In short: as §3

barnyard grass [4] = test: Test Example 4: herbicidal effect by soil treatment (Table 19, symbol H); type: in vivo, barnyard grass (Echinochloa crus-galli); conditions: amount of applied herbicide 320 g/ha
In short: as §3

wild oat [5] = test: Test Example 4: herbicidal effect by soil treatment (Table 19, symbol I); type: in vivo, wild oat (Avena fatua); conditions: amount of applied herbicide 320 g/ha
In short: as §3

blackgrass [6] = test: Test Example 4: herbicidal effect by soil treatment (Table 19, symbol J); type: in vivo, blackgrass (Alopecurus myosuroides); conditions: amount of applied herbicide 320 g/ha
In short: as §3

Italian ryegrass [7] = test: Test Example 4: herbicidal effect by soil treatment (Table 19, symbol K); type: in vivo, Italian ryegrass (Lolium multiflorum); conditions: amount of applied herbicide 320 g/ha
In short: as §3

windgrass [8] = test: Test Example 4: herbicidal effect by soil treatment (Table 19, symbol L); type: in vivo, windgrass (Apera spica-venti); conditions: amount of applied herbicide 320 g/ha
In short: as §3

velvetleaf [9] = test: Test Example 4: herbicidal effect by soil treatment (Table 19, symbol M); type: in vivo, velvetleaf (Abutilon theophrasti); conditions: amount of applied herbicide 320 g/ha
In short: as §3

redroot pigweed [10] = test: Test Example 4: herbicidal effect by soil treatment (Table 19, symbol N); type: in vivo, redroot pigweed (Amaranthus retroflexus); conditions: amount of applied herbicide 320 g/ha
In short: as §3

lambsquarters [11] = test: Test Example 4: herbicidal effect by soil treatment (Table 19, symbol O); type: in vivo, lambsquarters (Chenopodium album); conditions: amount of applied herbicide 320 g/ha
In short: as §3

chickweed [12] = test: Test Example 4: herbicidal effect by soil treatment (Table 19, symbol P); type: in vivo, common chickweed (Stellaria media); conditions: amount of applied herbicide 320 g/ha
In short: as §3

false cleavers = test: Test Example 4: herbicidal effect by soil treatment (Table 19, symbol Q); type: in vivo, false cleavers (Galium spurium); conditions: amount of applied herbicide 320 g/ha
In short: as §3

persian speedwell [13] = test: Test Example 4: herbicidal effect by soil treatment (Table 19, symbol R); type: in vivo, Persian speedwell (Veronica persica); conditions: amount of applied herbicide 320 g/ha
In short: as §3

southern crabgrass [14] = test: Test Example 5: herbicidal effect by foliage application, plastic box (Table 20, symbol F); type: in vivo, southern crabgrass (Digitaria ciliaris); conditions: 320 g/ha, foliage application after 14-day growth, evaluated three weeks after application
In short: (§4)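 Post-emergence foliar test in sterilized diluvial soil. Compound applied as water-diluted emulsion at a predetermined rate to 14-day-old plants; evaluation at three weeks.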

green foxtail [15] = test: Test Example 5: herbicidal effect by foliage application, plastic box (Table 20, symbol G); type: in vivo, green foxtail (Setaria viridis); conditions: 320 g/ha, foliage application after 14-day growth, evaluated three weeks after application
In short: as §4

barnyard grass [16] = test: Test Example 5: herbicidal effect by foliage application, plastic box (Table 20, symbol H); type: in vivo, barnyard grass (Echinochloa crus-galli); conditions: 320 g/ha, foliage application after 14-day growth, evaluated three weeks after application
In short: as §4

wild oat [17] = test: Test Example 5: herbicidal effect by foliage application, plastic box (Table 20, symbol I); type: in vivo, wild oat (Avena fatua); conditions: 320 g/ha, foliage application after 14-day growth, evaluated three weeks after application
In short: as §4

blackgrass [18] = test: Test Example 5: herbicidal effect by foliage application, plastic box (Table 20, symbol J); type: in vivo, blackgrass (Alopecurus myosuroides); conditions: 320 g/ha, foliage application after 14-day growth, evaluated three weeks after application
In short: as §4

Italian ryegrass [19] = test: Test Example 5: herbicidal effect by foliage application, plastic box (Table 20, symbol K); type: in vivo, Italian ryegrass (Lolium multiflorum); conditions: 320 g/ha, foliage application after 14-day growth, evaluated three weeks after application
In short: as §4

windgrass [20] = test: Test Example 5: herbicidal effect by foliage application, plastic box (Table 20, symbol L); type: in vivo, windgrass (Apera spica-venti); conditions: 320 g/ha, foliage application after 14-day growth, evaluated three weeks after application
In short: as §4

velvetleaf [21] = test: Test Example 5: herbicidal effect by foliage application, plastic box (Table 20, symbol M); type: in vivo, velvetleaf (Abutilon theophrasti); conditions: 320 g/ha, foliage application after 14-day growth, evaluated three weeks after application
In short: as §4

redroot pigweed [22] = test: Test Example 5: herbicidal effect by foliage application, plastic box (Table 20, symbol N); type: in vivo, redroot pigweed (Amaranthus retroflexus); conditions: 320 g/ha, foliage application after 14-day growth, evaluated three weeks after application
In short: as §4

lambsquarters [23] = test: Test Example 5: herbicidal effect by foliage application, plastic box (Table 20, symbol O); type: in vivo, lambsquarters (Chenopodium album); conditions: 320 g/ha, foliage application after 14-day growth, evaluated three weeks after application
In short: as §4

chickweed [24] = test: Test Example 5: herbicidal effect by foliage application, plastic box (Table 20, symbol P); type: in vivo, common chickweed (Stellaria media); conditions: 320 g/ha, foliage application after 14-day growth, evaluated three weeks after application
In short: as §4

persian speedwell [25] = test: Test Example 5: herbicidal effect by foliage application, plastic box (Table 20, symbol R); type: in vivo, Persian speedwell (Veronica persica); conditions: 320 g/ha, foliage application after 14-day growth, evaluated three weeks after application
In short: as §4

## CSc1ccc(-c2sc3c(F)cccc3c2-c2c(O)c(C)nn(C)c2=O)cc1 [4-050]
Late watergrass
  Herbicidal effect, A: late watergrass: 3 (Herbicidal rate of 40% or more and less than 70%)
Japanese bulrush
  Herbicidal effect, B: Japanese bulrush: 0 (Herbicidal rate of 5% or less (almost no effect))
oval-leafed pondweed
  Herbicidal effect, C: oval-leafed pondweed: 0 (Herbicidal rate of 5% or less (almost no effect))
Barnyard grass [1]
  herbicidal effect on barnyard grass (H): 5 (Herbicidal rate of 90% or more (almost completely withered))
Chinese sprangletop
  herbicidal effect on Chinese sprangletop (D): 4 (Herbicidal rate of 70% or more and less than 90%)
Rice flat sedge
  herbicidal effect on rice flat sedge (E): 4 (Herbicidal rate of 70% or more and less than 90%)
Southern crabgrass [2]
  Herbicidal effect by soil treatment, F: southern crabgrass: 2 (Herbicidal rate of 20% or more and less than 40%)
Green foxtail [3]
  Herbicidal effect by soil treatment, G: green foxtail: 3 (Herbicidal rate of 40% or more and less than 70%)
Barnyard grass [4]
  Herbicidal effect by soil treatment, H: barnyard grass: 2 (Herbicidal rate of 20% or more and less than 40%)
Wild oat [5]
  Herbicidal effect by soil treatment, I: wild oat: 0 (Herbicidal rate of 5% or less (almost no effect))
Blackgrass [6]
  Herbicidal effect by soil treatment, J: blackgrass: 0 (Herbicidal rate of 5% or less (almost no effect))
Italian ryegrass [7]
  Herbicidal effect by soil treatment, K: Italian ryegrass: 1 (Herbicidal rate of 5% or more and less than 20%)
Windgrass [8]
  Herbicidal effect by soil treatment, L: windgrass: 0 (Herbicidal rate of 5% or less (almost no effect))
Velvetleaf [9]
  Herbicidal effect by soil treatment, M: velvetleaf: 3 (Herbicidal rate of 40% or more and less than 70%)
Redroot pigweed [10]
  Herbicidal effect by soil treatment, N: redroot pigweed: 4 (Herbicidal rate of 70% or more and less than 90%)
Lambsquarters [11]
  Herbicidal effect by soil treatment, O: lambsquarters: 3 (Herbicidal rate of 40% or more and less than 70%)
Chickweed [12]
  Herbicidal effect by soil treatment, P: chickweed: 4 (Herbicidal rate of 70% or more and less than 90%)
False cleavers
  Herbicidal effect by soil treatment, Q: false cleavers: 0 (Herbicidal rate of 5% or less (almost no effect))
Persian speedwell [13]
  Herbicidal effect by soil treatment, R: persian speedwell: 4 (Herbicidal rate of 70% or more and less than 90%)
Southern crabgrass [14]
  herbicidal effect on F: southern crabgrass (evaluation grade 0-5): 2 (Herbicidal rate of 20% or more and less than 40%)
Green foxtail [15]
  herbicidal effect on G: green foxtail (evaluation grade 0-5): 5 (Herbicidal rate of 90% or more (almost completely withered))
Barnyard grass [16]
  herbicidal effect on H: barnyard grass (evaluation grade 0-5): 5 (Herbicidal rate of 90% or more (almost completely withered))
Wild oat [17]
  herbicidal effect on I: wild oat (evaluation grade 0-5): 1 (Herbicidal rate of 5% or more and less than 20%)
Blackgrass [18]
  herbicidal effect on J: blackgrass (evaluation grade 0-5): 3 (Herbicidal rate of 40% or more and less than 70%)
Italian ryegrass [19]
  herbicidal effect on K: Italian ryegrass (evaluation grade 0-5): 4 (Herbicidal rate of 70% or more and less than 90%)
Windgrass [20]
  herbicidal effect on L: windgrass (evaluation grade 0-5): 5 (Herbicidal rate of 90% or more (almost completely withered))
Velvetleaf [21]
  herbicidal effect on M: velvetleaf (evaluation grade 0-5): 5 (Herbicidal rate of 90% or more (almost completely withered))
Redroot pigweed [22]
  herbicidal effect on N: redroot pigweed (evaluation grade 0-5): 5 (Herbicidal rate of 90% or more (almost completely withered))
Lambsquarters [23]
  herbicidal effect on O: lambsquarters (evaluation grade 0-5): 5 (Herbicidal rate of 90% or more (almost completely withered))
Chickweed [24]
  herbicidal effect on P: chickweed (evaluation grade 0-5): 5 (Herbicidal rate of 90% or more (almost completely withered))
Persian speedwell [25]
  herbicidal effect on R: persian speedwell (evaluation grade 0-5): 5 (Herbicidal rate of 90% or more (almost completely withered))
